Laboratory results as given in the Biogen ADME set (Fang et al. 2023).
≈ marks a conversion by molar mass, not a printed value.

Conditions: for aqueous solubility: pH 6.8

Row | MDR1-MDCK efflux ratio | intrinsic clearance, human liver microsomes | intrinsic clearance, rat liver microsomes | aqueous solubility | fraction unbound, human plasma | fraction unbound, rat plasma | Structure (SMILES)
1 | 0.641 | 115 mL/min/kg | 398 mL/min/kg | – | – | – | CCn1nccc1-c1cc(C)nc(N2CCCC2)n1
2 | 0.718 | 15 mL/min/kg | 361 mL/min/kg | 37.8 µg/mL (≈ 158 µM) | – | – | CN(Cc1ccccn1)c1nc2ccccc2o1
3 | – | ≤ 4.74 mL/min/kg | ≤ 10.7 mL/min/kg | – | – | – | O=C(NC[C@]1(O)CCN(Cc2cccs2)C[C@H]1O)c1c[nH]cn1
4 | 2.59 | 25.3 mL/min/kg | 456 mL/min/kg | 12.4 µg/mL (≈ 38.8 µM) | – | – | Cc1cc2ccccc2n1CC(=O)N1CCc2ccc(O)cc2C1
5 | 0.85 | 6.42 mL/min/kg | 214 mL/min/kg | – | – | – | CC1CCC(O)(CSc2nncn2C(C)C)CC1 (stereo not drawn)
6 | 63.1 | 12.8 mL/min/kg | 34.7 mL/min/kg | 46.2 µg/mL (≈ 103 µM) | – | – | CC(=O)c1c(C)c2cnc(Nc3ccc(N4CCNCC4)cn3)nc2n(C2CCCC2)c1=O
7 | – | – | – | 31.7 µg/mL (≈ 132 µM) | – | – | Cc1c(Nc2ccc3nccnc3n2)cnn1C
8 | 3.77 | 77.7 mL/min/kg | 1040 mL/min/kg | 27.1 µg/mL (≈ 92.5 µM) | – | – | CN(C)c1cccc(Cn2ccnc2-c2ccc(O)cc2)c1
9 | 29.2 | 150 mL/min/kg | 1300 mL/min/kg | – | – | – | Cc1cc(C)cc(OCCN(C)C(=O)NCCN2CCCCC2=O)c1
10 | 0.85 | ≤ 4.74 mL/min/kg | 75 mL/min/kg | 20.7 µg/mL (≈ 78.5 µM) | – | – | CCc1cnc(C)nc1-c1ccc(-c2ccn[nH]2)cc1
11 | 1.04 | ≤ 4.74 mL/min/kg | ≤ 10.7 mL/min/kg | 33.6 µg/mL (≈ 161 µM) | – | – | Cn1cc(C(=O)O)c(C2CCCCC2)n1
12 | 0.513 | 62.7 mL/min/kg | 272 mL/min/kg | 42.8 µg/mL (≈ 145 µM) | – | – | Cc1nc(N2CCOc3ccccc3C2)c2cnn(C)c2n1
13 | – | – | – | 3.07 µg/mL (≈ 10.8 µM) | – | – | CCCc1n[nH]c2c1C(C1CC=CCC1)C(C#N)=C(N)O2 (stereo not drawn)
14 | 2.28 | 7.52 mL/min/kg | 214 mL/min/kg | 33.6 µg/mL (≈ 119 µM) | – | – | Cc1ccc(Cn2nccc2NC(=O)c2ccncc2)o1
15 | 9.02 | ≤ 4.74 mL/min/kg | 19.3 mL/min/kg | 27 µg/mL (≈ 95.6 µM) | – | – | Cc1ccc2nc(C)c(-c3nc(C)nn3CCO)cc2c1
16 | 0.619 | 51.6 mL/min/kg | 366 mL/min/kg | – | – | – | Cc1nn(C)c(C)c1-c1cc(C(C)(C)C)nc(N(C)C)n1
17 | 0.711 | ≤ 4.74 mL/min/kg | 22.9 mL/min/kg | 40.8 µg/mL (≈ 195 µM) | – | – | COCCNc1ncnc2ccsc12
18 | – | ≤ 4.74 mL/min/kg | 38.2 mL/min/kg | – | – | – | COc1cccc(CN2CCc3nc(-c4cnc(C)cn4)nc(O)c3C2)c1
19 | – | ≤ 4.74 mL/min/kg | 262 mL/min/kg | 11 µg/mL (≈ 31.6 µM) | – | – | CC(C)[C@@H](C(=O)Nc1nc2ccccc2[nH]1)N1Cc2ccccc2C1=O
20 | 6.08 | – | – | 0.22 µg/mL (≈ 0.528 µM) | – | – | CCCNC(=O)Nc1ccc(Oc2ncnc3cc(OC)c(OC)cc23)cc1Cl
21 | 33 | ≤ 4.74 mL/min/kg | 68.2 mL/min/kg | 35.9 µg/mL (≈ 81.9 µM) | – | – | N#CN1CCC[C@H](n2nc(-c3ccc(Oc4ccc(F)cc4F)cc3)c(C(N)=O)c2N)C1
22 | – | 9.51 mL/min/kg | 29.1 mL/min/kg | 36.2 µg/mL (≈ 139 µM) | – | – | CNc1nc(C2CCNCC2)nc2c1CN(C)CC2
23 | 2.59 | ≤ 4.74 mL/min/kg | 322 mL/min/kg | 34.9 µg/mL (≈ 136 µM) | – | – | CN(CC#N)C(=O)c1cccc(CN2CCCC2)c1
24 | 0.746 | 108 mL/min/kg | 642 mL/min/kg | 3.11 µg/mL (≈ 12.6 µM) | – | – | CN(C)c1nc(N)nc(Sc2ccccc2)n1
25 | 3.63 | ≤ 4.74 mL/min/kg | 51.9 mL/min/kg | 32.4 µg/mL (≈ 130 µM) | – | – | CCc1cnc(CN2C(=O)NC3(CCC3)C2=O)o1
26 | 0.571 | 19.6 mL/min/kg | 148 mL/min/kg | – | – | – | c1cnc(NCc2cccc(-c3cccnc3)c2)nc1
27 | 21.4 | 717 mL/min/kg | 2130 mL/min/kg | 14.4 µg/mL (≈ 35.9 µM) | – | – | Cc1ccccc1OCCCNc1cc(Cn2c(C)nc3ccccc32)nc(N)n1

Row | MDR1-MDCK efflux ratio | intrinsic clearance, human liver microsomes | intrinsic clearance, rat liver microsomes | aqueous solubility | fraction unbound, human plasma | fraction unbound, rat plasma | Structure (SMILES)
28 | 0.642 | – | – | 0.27 µg/mL (≈ 0.895 µM) | – | – | Fc1ccc(-n2cc(/C=C/c3ccnnc3)nn2)cc1Cl
29 | 1.2 | 36.6 mL/min/kg | 76.6 mL/min/kg | – | – | – | COCC(=O)Nc1ccc(NC(=O)Cc2cc(C)ccc2C)cc1
30 | 1.97 | 404 mL/min/kg | 653 mL/min/kg | 35.3 µg/mL (≈ 80.9 µM) | – | – | O=C(C(c1ccccc1)c1ccccc1)N1CCOCC(Cc2ccc3cnccc3c2)C1 (stereo not drawn)
31 | 0.961 | 446 mL/min/kg | 559 mL/min/kg | – | 0.0244 | 0.0188 | CNC(=O)C1(Cc2ccc(-c3cccnc3)cc2)CCN(Cc2ccccc2Cl)C1 (stereo not drawn)
32 | 1.57 | 133 mL/min/kg | 857 mL/min/kg | 51.4 µg/mL (≈ 149 µM) | – | – | CCS(=O)(=O)N1CCC(C(=O)N(C)C2CCCCCCC2)CC1
33 | – | 8.01 mL/min/kg | 195 mL/min/kg | 47.9 µg/mL (≈ 154 µM) | – | – | Cc1nc2ccc(C(=O)NCCCc3ccc(F)cc3)cc2[nH]1
34 | 0.501 | 506 mL/min/kg | 3360 mL/min/kg | 27.7 µg/mL (≈ 105 µM) | – | – | Cn1c(-c2ccccc2)cnc1NCc1ccccc1
35 | 34.8 | 4.96 mL/min/kg | 121 mL/min/kg | 3.4 µg/mL (≈ 7.74 µM) | – | – | COc1ccc2cc(-c3[nH]c(-c4ccc(S(C)=O)cc4)nc3-c3ccncc3)ccc2c1 (stereo not drawn)
36 | 4.55 | 8.19 mL/min/kg | 88.1 mL/min/kg | 32.5 µg/mL (≈ 81.7 µM) | – | – | CC(C)(C)n1ncc(OCc2ccc(OCCOCCO)nc2)c(Cl)c1=O
37 | 7.25 | 361 mL/min/kg | 1760 mL/min/kg | – | – | – | O=S(=O)(NCc1n[nH]c2c1CCCCC2)c1ccc(OC(F)F)cc1
38 | 0.443 | 479 mL/min/kg | 2170 mL/min/kg | 24.5 µg/mL (≈ 84.6 µM) | – | – | Clc1ccccc1CNCc1ccc2c(c1)OCCO2
39 | 0.458 | 26.9 mL/min/kg | 219 mL/min/kg | 16.5 µg/mL (≈ 60.7 µM) | – | – | Clc1ccc(Cc2nc(-c3cccnc3)no2)cc1
40 | 81.5 | 30.6 mL/min/kg | 217 mL/min/kg | 63.4 µg/mL (≈ 180 µM) | – | – | CCC1(CC)NC(=O)N(CC(=O)N2CCOCC3(CCCC3)C2)C1=O
41 | – | ≤ 4.74 mL/min/kg | ≤ 10.7 mL/min/kg | – | – | – | CC(C)c1ccc2occ(CC(=O)O)c2c1
42 | 0.701 | 7.14 mL/min/kg | 46.3 mL/min/kg | 11.2 µg/mL (≈ 36.8 µM) | – | – | Cn1cc(-c2nnc(NCc3ccc4ccccc4c3)o2)cn1
43 | 0.524 | ≤ 4.74 mL/min/kg | 299 mL/min/kg | 42 µg/mL (≈ 153 µM) | 0.246 | 0.305 | OCC1CCCCN1Cc1ccc(Cl)c(Cl)c1 (stereo not drawn)
44 | 0.719 | ≤ 4.74 mL/min/kg | ≤ 10.7 mL/min/kg | 90.9 µg/mL (≈ 372 µM) | – | – | Cc1cc(C(=O)N(C)C2CCC2)n2nccc2n1
45 | 0.492 | – | – | 0.71 µg/mL (≈ 2.13 µM) | – | – | CC(C)c1ccccc1OC(=O)NCCc1ccc2ccccc2c1
46 | 5.96 | 11.3 mL/min/kg | 23.8 mL/min/kg | – | – | – | O=C(Nc1ccccc1)Nc1ccc(-c2ccc(C(=O)[C@H]3CCC[C@@H]3C(=O)O)cc2)cc1
47 | – | 8.74 mL/min/kg | 61.6 mL/min/kg | 25.7 µg/mL (≈ 65.8 µM) | – | – | Cc1ccc(F)cc1C(=O)N1CCc2c(nc(-c3ccccn3)nc2N(C)C)C1
48 | – | 222 mL/min/kg | 3560 mL/min/kg | – | – | – | C[C@@H](Cn1nc2c(cc1=O)CCCCC2)NC(=O)CCc1ccccc1
49 | – | ≤ 4.74 mL/min/kg | ≤ 10.7 mL/min/kg | – | – | – | Cc1ccc(OCC(=O)Nc2cc(C)on2)nc1
50 | 8.43 | 69.4 mL/min/kg | 516 mL/min/kg | 67.5 µg/mL (≈ 146 µM) | – | – | CCN(CC)Cc1cccc(/C=C/c2nc3ccc(F)cc3c(=O)n2-c2ccccc2Cl)n1
51 | 0.684 | 71.2 mL/min/kg | 631 mL/min/kg | – | – | – | Cc1ccc(=O)n(CCOc2ccc(Cl)c(F)c2)n1
52 | 15.9 | 24.5 mL/min/kg | 182 mL/min/kg | 26.4 µg/mL (≈ 81.6 µM) | – | – | COCCc1nc(-c2ccccc2-c2ccccc2)n(CCO)n1
53 | 0.42 | 26.1 mL/min/kg | 124 mL/min/kg | – | – | – | O=c1c2ccccc2nnn1CCOc1ccc(F)cc1
54 | 35.5 | 18.7 mL/min/kg | 103 mL/min/kg | – | – | – | Cc1cc(Nc2nnc(C)s2)cc(C2CN(C(=O)Cc3csc(C)n3)CCO2)n1 (stereo not drawn)

Row | Structure (SMILES) | MDR1-MDCK efflux ratio | intrinsic clearance, human liver microsomes | intrinsic clearance, rat liver microsomes | aqueous solubility | fraction unbound, human plasma | fraction unbound, rat plasma
55 | Cc1cc(C)nc(N2Cc3ccccc3C2=N)n1 | 0.807 | 24.6 mL/min/kg | 1160 mL/min/kg | – | – | –
56 | NC(=O)c1cnn(Cc2cccc(F)c2)c1 | – | ≤ 4.74 mL/min/kg | ≤ 10.7 mL/min/kg | – | – | –
57 | O=C(CN1CCCC1=O)NCC1(CO)CCCC1 | 2.26 | ≤ 4.74 mL/min/kg | ≤ 10.7 mL/min/kg | – | – | –
58 | O=C1C(N2CCC(n3c(=O)[nH]c4ccccc43)CC2)CCN1c1ccccc1 (stereo not drawn) | – | 4.86 mL/min/kg | 139 mL/min/kg | 62 µg/mL (≈ 165 µM) | – | –
